In brackets after ≈: the same amount, converted by molar mass. Several values for one entry are separate records, joined by “and”; a condition that tells them apart may be missing. Identical values can stand only once.
What was measured:
[1] = Solubility in water after 7 hours equilibration; format: physicochemical
[2] = Storage stability at controlled temperature and relative humidity
[3] = Hygroscopicity / conversion of polymorph through absorption of water; format: physicochemical
[4] = Intrinsic dissolution rate in water; format: physicochemical
Description: The intrinsic dissolution rate in water of the edaravone salt was 0.37 mg/min/cm^2, whereas the dissolution rate of the freebase was 0.22 mg/min/cm^2.

[5] = cited from earlier work

Molecule: 3-methyl-1-phenyl-2-pyrazolin-5-one hemi-napadisylate monohydrate [Example 1]
- solubility in water ([1]; monohydrate): 2800 µg/mL and 3200 µg/mL
- stability (in words) [2]: very stable
- degradation on storage ([2]; kept for 28 days at 40° C. and 75% RH): without showing significant degradation
- hygroscopicity [3]: non-hygroscopic
- intrinsic dissolution rate in water [4]: 0.37 mg/min/cm^2

Molecule: CC1=NN(c2ccccc2)C(=O)C1 [Edaravone, 3-Methyl-1-phenyl-2-pyrazolin-5-one]
- solubility at 7 h ([1]; thermodynamic from solid): 2000 to 3000 µg/mL (≈ 11.5 to 17.2 mM)
- dissolution in water (in words) [5]: dissolves very slowly
- intrinsic dissolution rate in water [4]: 0.22 mg/min/cm^2

Molecule: CC1=NN(c2ccccc2)C(=O)C1.CC1=NN(c2ccccc2)C(=O)C1.O.O=S(=O)(O)c1cccc2c(S(=O)(=O)O)cccc12 [Example 3, 3-methyl-1-phenyl-2-pyrazolin-5-one hemi-napadisylate hemihydrate]
- relative humidity at which it is converted into polymorph B through absorption of water ([3]; conversion into polymorph B): > 50 % RH

Molecule: CC1=NN(c2ccccc2)C(=O)C1.CC1=NN(c2ccccc2)C(=O)C1.O.O.O=S(=O)(O)c1cccc2c(S(=O)(=O)O)cccc12 [Example 4, 3-methyl-1-phenyl-2-pyrazolin-5-one hemi-napadisylate monohydrate]
- hygroscopicity [3]: non-hygroscopic

Molecule: anhydrous 3-methyl-1-phenyl-2-pyrazolin-5-one napadisylate [Example 6]
- degradation on storage ([2]; kept for 2 days at 40° C. and 75% RH): without showing significant degradation
- relative humidity at which it is converted into polymorph D through absorption of water ([3]; conversion into polymorph D): > 75 % RH

From patent US11117868B2, “Edaravone salt” (Treeway TW001 B.V., priority 2017, dated 2021)
